PubChem BioAssay (NCI)
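All cell lines were grown in 96-well plates and treated with compound for 48 hours. TGI: total growth inhibition.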

How the values were obtained:
Assay in all cases: NCI anticancer screen, dose series, 48 h
[1] = tested on: KM12 colon
[2] = tested on: CAKI-1 renal
[3] = tested on: SK-OV-3 ovarian
[4] = tested on: M14 melanoma
[5] = tested on: HOP-92 NSCLC
[6] = tested on: SK-MEL-28 melanoma
[7] = tested on: HCC-2998 colon
[8] = tested on: A549 NSCLC
[9] = tested on: HCT-116 colon
[10] = tested on: MDA-MB-435
[11] = tested on: T-47D breast
[12] = tested on: MDA-MB-231 breast
[13] = tested on: UACC-62 melanoma
[14] = tested on: SK-MEL-5 melanoma
[15] = tested on: NCI-H522 lung
[16] = tested on: HOP-62 NSCLC
[17] = tested on: SW-620 colon
[18] = tested on: MALME-3M melanoma
[19] = tested on: OVCAR-4 ovarian
[20] = tested on: MCF7 breast
[21] = tested on: TK-10 renal
[22] = tested on: MDA-N
[23] = tested on: HT29 colon
[24] = tested on: UACC-257 melanoma
[25] = tested on: SNB-19 CNS
[26] = tested on: SF-295 CNS
[27] = tested on: SF-539 CNS
[28] = tested on: MOLT-4 leukemia
[29] = tested on: SNB-75 CNS
[30] = tested on: LOX IMVI melanoma
[31] = tested on: RPMI-8226 leukemia
[32] = tested on: NCI-H226 lung
[33] = tested on: BT-549 breast
[34] = tested on: 786-0 renal
[35] = tested on: SN12C renal
[36] = tested on: K-562 leukemia
[37] = tested on: NCI/ADR-RES ovarian
[38] = tested on: OVCAR-8 ovarian
[39] = tested on: PC-3 prostate
[40] = tested on: SF-268 CNS
[41] = tested on: CCRF-CEM leukemia
[42] = tested on: NCI-H23 lung
[43] = tested on: DU-145 prostate
[44] = tested on: ACHN renal
[45] = tested on: EKVX NSCLC
[46] = tested on: HS 578T breast
[47] = tested on: SR leukemia
[48] = tested on: HCT-15 colon
[49] = tested on: HL-60(TB) leukemia
[50] = tested on: UO-31 renal
[51] = tested on: NCI-H460 lung
[52] = tested on: RXF 393 renal
[53] = tested on: COLO 205 colon
[54] = tested on: IGROV1 ovarian
[55] = tested on: OVCAR-3 ovarian
[56] = tested on: A498 renal
[57] = tested on: SK-MEL-2 melanoma
[58] = tested on: OVCAR-5 ovarian
[59] = tested on: U251 CNS

Measured: TGI

CSC1NNC2(C(=O)N1)c1ccccc1-c1ccccc12 (stereo unspecified)
not listed: [55] | [56] | [57] | [58] | [59]
> 10 µM: all other assays above

COC(=O)c1c(C#C[Si](C)(C)C)c(C#C[Si](C)(C)C)c(C#C[Si](C)(C)C)c(C#C[Si](C)(C)C)c1C(=O)OC
not listed: [16] | [30]
> 100 µM: all other assays above

S=C(Nc1ccc2c(c1)Cc1ccccc1-2)Nc1ccc2c(c1)Cc1ccccc1-2
39.5 µM: [28]
27.2 µM: [41]
74.5 µM: [36]
22.4 µM: [49]
not listed: [27] | [29] | [47] | [57]
> 100 µM: all other assays above
